Measured values reported in ChEMBL document CHEMBL1781959, “Synthesis and in vitro antitumor activity of substituted quinazoline and quinoxaline derivatives: search for anticancer agent” (Eur J Med Chem, 2011).

How the values were obtained:
Type in all cases: functional
SF-268 = assay: Anticancer activity against human SF268 cells assessed as cell growth promotion at 10^-5 M after 48 hrs by SRB assay relative to control
SF-295 = assay: Anticancer activity against human SF295 cells assessed as cell growth promotion at 10^-5 M after 48 hrs by SRB assay relative to control
SF-539 = assay: Anticancer activity against human SF539 cells assessed as cell growth promotion at 10^-5 M after 48 hrs by SRB assay relative to control
SNB-19 = assay: Anticancer activity against human SNB19 cells assessed as cell growth promotion at 10^-5 M after 48 hrs by SRB assay relative to control
Malme-3M = assay: Anticancer activity against human MALME-3M cells assessed as cell growth promotion at 10^-5 M after 48 hrs by SRB assay relative to control
CCRF-CEM = assay: Anticancer activity against human CCRF-CEM cells assessed as cell growth promotion at 10^-5 M after 48 hrs by SRB assay relative to control
MDA-MB-435 = assay: Anticancer activity against human MDA-MB-435 cells assessed as cell growth promotion at 10^-5 M after 48 hrs by SRB assay relative to control
SK-MEL-28 = assay: Anticancer activity against human SK-MEL-28 cells assessed as cell growth promotion at 10^-5 M after 48 hrs by SRB assay relative to control
SK-MEL-5 = assay: Anticancer activity against human SK-MEL-5 cells assessed as cell growth promotion at 10^-5 M after 48 hrs by SRB assay relative to control
UACC-257 = assay: Anticancer activity against human UACC257 cells assessed as cell growth promotion at 10^-5 M after 48 hrs by SRB assay relative to control
OVCAR-3 = assay: Anticancer activity against human OVCAR3 cells assessed as cell growth promotion at 10^-5 M after 48 hrs by SRB assay relative to control
OVCAR-5 = assay: Anticancer activity against human OVCAR5 cells assessed as cell growth promotion at 10^-5 M after 48 hrs by SRB assay relative to control
OVCAR-8 = assay: Anticancer activity against human OVCAR8 cells assessed as cell growth promotion at 10^-5 M after 48 hrs by SRB assay relative to control
NCI/ADR-RES = assay: Anticancer activity against human NCI/ADR-RES cells assessed as cell growth promotion at 10^-5 M after 48 hrs by SRB assay relative to control
SK-OV-3 = assay: Anticancer activity against human SKOV3 cells assessed as cell growth promotion at 10^-5 M after 48 hrs by SRB assay relative to control
786-0 = assay: Anticancer activity against human 786-0 cells assessed as cell growth promotion at 10^-5 M after 48 hrs by SRB assay relative to control
A498 = assay: Anticancer activity against human A498 cells assessed as cell growth promotion at 10^-5 M after 48 hrs by SRB assay relative to control
CAKI-1 = assay: Anticancer activity against human Caki1 cells assessed as cell growth promotion at 10^-5 M after 48 hrs by SRB assay relative to control
RXF 393 = assay: Anticancer activity against human RXF393 cells assessed as cell growth promotion at 10^-5 M after 48 hrs by SRB assay relative to control
SN12C = assay: Anticancer activity against human SN12C cells assessed as cell growth promotion at 10^-5 M after 48 hrs by SRB assay relative to control
TK-10 = assay: Anticancer activity against human TK10 cells assessed as cell growth promotion at 10^-5 M after 48 hrs by SRB assay relative to control
UO-31 = assay: Anticancer activity against human UO31 cells assessed as cell growth promotion at 10^-5 M after 48 hrs by SRB assay relative to control
PC-3 = assay: Anticancer activity against human PC3 cells assessed as cell growth promotion at 10^-5 M after 48 hrs by SRB assay relative to control
DU-145 = assay: Anticancer activity against human DU145 cells assessed as cell growth promotion at 10^-5 M after 48 hrs by SRB assay relative to control
MCF7 = assay: Anticancer activity against human MCF7 cells assessed as cell growth promotion at 10^-5 M after 48 hrs by SRB assay relative to control
K562 = assay: Anticancer activity against human K562 cells assessed as cell growth promotion at 10^-5 M after 48 hrs by SRB assay relative to control
MOLT-4 = assay: Anticancer activity against human MOLT4 cells assessed as cell growth promotion at 10^-5 M after 48 hrs by SRB assay relative to control
MDA-MB-231 = assay: Anticancer activity against human MDA-MB-231 cells assessed as cell growth promotion at 10^-5 M after 48 hrs by SRB assay relative to control
[1] = Anticancer activity against human Hs 578T cells assessed as cell growth promotion at 10^-5 M after 48 hrs by SRB assay relative to control
T47D = assay: Anticancer activity against human T47D cells assessed as cell growth promotion at 10^-5 M after 48 hrs by SRB assay relative to control
MDA-MB-468 = assay: Anticancer activity against human MDA-MB-468 cells assessed as cell growth promotion at 10^-5 M after 48 hrs by SRB assay relative to control
SR = assay: Anticancer activity against human SR cells assessed as cell growth promotion at 10^-5 M after 48 hrs by SRB assay relative to control
A549 = assay: Anticancer activity against human A549 cells assessed as cell growth promotion at 10^-5 M after 48 hrs by SRB assay relative to control
EKVX = assay: Anticancer activity against human EKVX cells assessed as cell growth promotion at 10^-5 M after 48 hrs by SRB assay relative to control
NCI-H226 = assay: Anticancer activity against human NCI-H226 cells assessed as cell growth promotion at 10^-5 M after 48 hrs by SRB assay relative to control
NCI-H460 = assay: Anticancer activity against human NCI-H460 cells assessed as cell growth promotion at 10^-5 M after 48 hrs by SRB assay relative to control
HCC 2998 = assay: Anticancer activity against human HCC2998 cells assessed as cell growth promotion at 10^-5 M after 48 hrs by SRB assay relative to control
HCT-116 = assay: Anticancer activity against human HCT116 cells assessed as cell growth promotion at 10^-5 M after 48 hrs by SRB assay relative to control
HCT-15 = assay: Anticancer activity against human HCT15 cells assessed as cell growth promotion at 10^-5 M after 48 hrs by SRB assay relative to control
KM12 = assay: Anticancer activity against human KM12 cells assessed as cell growth promotion at 10^-5 M after 48 hrs by SRB assay relative to control

| Compound | Activity (SF-268) [%] | Activity (SF-295) [%] | Activity (SF-539) [%] | Activity (SNB-19) [%] | Activity (Malme-3M) [%] | Activity (CCRF-CEM) [%] | Activity (MDA-MB-435) [%] | Activity (SK-MEL-28) [%] | Activity (SK-MEL-5) [%] | Activity (UACC-257) [%] | Activity (OVCAR-3) [%] | Activity (OVCAR-5) [%] | Activity (OVCAR-8) [%] | Activity (NCI/ADR-RES) [%] | Activity (SK-OV-3) [%] | Activity (786-0) [%] | Activity (A498) [%] | Activity (CAKI-1) [%] | Activity (RXF 393) [%] | Activity (SN12C) [%] | also measured |
| --- | --- | --- | --- | --- | --- | --- | --- | --- | --- | --- | --- | --- | --- | --- | --- | --- | --- | --- | --- | --- | --- |
| O=C(Nc1ccccc1C(=O)Nc1ccc(/C=C/c2ccc(Cl)cc2)cc1)c1ccco1 | 107 | 122 | 97.41 | 107 | 115 | 103 | 101 | 111 | 105 | 112 | 109 | 108 | 100 | 104 | 116 | 103 | 69.42 | 89.89 | 117 | 103 | Activity (TK-10): 127%; Activity (UO-31): 83.88%; Activity (PC-3): 115%; Activity (DU-145): 112%; Activity (MCF7): 98.82%; Activity (K562): 95.66%; Activity (MOLT-4): 100%; Activity (MDA-MB-231): 102%; Activity [1]: 113%; Activity (T47D): 106%; Activity (MDA-MB-468): 108%; Activity (SR): 109%; Activity (A549): 102%; Activity (EKVX): 80.41%; Activity (NCI-H226): 105%; Activity (NCI-H460): 107%; Activity (HCC 2998): 96.83%; Activity (HCT-116): 108%; Activity (HCT-15): 109%; Activity (KM12): 110% |
| NS(=O)(=O)c1ccc(NC(=O)c2ccccc2NC(=O)c2ccco2)cc1 | 98.43 | 103.8 | 86.82 | 110.7 | 118.8 | 98.87 | 107.2 | 107.1 | 108.4 | 100.1 | 108 | 99.82 | 103 | 111 | 110 | 108 | -23 | 100 | 113 | 105 | Activity (TK-10): 102%; Activity (UO-31): 104%; Activity (PC-3): 118%; Activity (DU-145): 113%; Activity (MCF7): 95.61%; Activity (K562): 95.39%; Activity (MOLT-4): 87.33%; Activity (MDA-MB-231): 102%; Activity [1]: 118%; Activity (T47D): 103%; Activity (MDA-MB-468): 106%; Activity (SR): 101.4%; Activity (A549): 106.3%; Activity (EKVX): 97.23%; Activity (NCI-H226): 114.6%; Activity (NCI-H460): 115.5%; Activity (HCC 2998): 103.3%; Activity (HCT-116): 109.7%; Activity (HCT-15): 105.5%; Activity (KM12): 108.4% |
